Reference: publication PMC9641054, “Antimicrobial activity of cationic antimicrobial peptides against stationary phase bacteria” (Frontiers in Microbiology, 2022)
Values after ≈ are worked out from the molar mass of the structure shown. No end group written: not given here.

Assays:
Format in all cases: cell-based
[1] = system: Staphylococcus aureus SH1000; assay: microbe, parasite or virus in culture; settings: for MIC: Staphylococcus aureus, SH1000, read-out: MIC S. aureus SH1000
Procedure: (§1) The Escherichia coli K12 from Yale University Microbial Stock Center and Staphylococcus aureus SH1000 ([Horsburgh et al., 2002]) were used for all experiments. All cultures related to antimicrobial tests and experiments were carried out in Mueller-Hinton I broth (Sigma) devoid of cations. Both strains were routinely cultured in Lysogeny Broth (LB medium).
(§2) The minimal inhibitory concentration for each antimicrobial were determined according to CLSI recommendations by the microdilution method ([CLSI, 2018]) with minor modifications for antimicrobial peptides ([Giacometti et al., 2000]). For comparison, we kept these modifications also for antibiotics. Inoculum size that was adjusted to approximately 1 × 10^6 CFU/ml from a 2-h mid-exponential phase obtained by diluting 100 μl of overnight cultures in 10 ml of fresh medium in 50 ml Falcon tubes. The MIC was defined as the minimal antimicrobial concentration that inhibited growth, after 24 h of incubation in liquid MHB medium at 37°C. Polypropylene non-binding plates (96 wells, Th. Geyer, Germany) were used for all experiments.

Escherichia coli K12 [2] = assay: microbe, parasite or virus in culture; settings: for MIC: Escherichia coli, K12, read-out: MIC E. coli K12
Procedure: as §1, §2

[3] = system: Staphylococcus aureus SH1000; assay: Killing experiment at 10x MIC, fast-growing (exponential) versus stationary phase bacteria in spent medium; settings: for Killing fold-change 4 h (median) / Killing fold-change 24 h: S. aureus SH1000, exponentially growing versus stationary phase cultures, 10x MIC, ~2 × 10^6 CFU/ml, 37°C, five independent cultures; for Killing of stationary phase bacteria at 24 h (in words) / Killing of stationary phase bacteria at 4 h (in words): stationary phase in spent medium
Procedure: (§3) For exponentially growing bacteria, five independent cultures per treatment were diluted 1:100 from a 16-h overnight culture (by adding 100 μl to 10 ml of MHB medium in 50 ml Falcon tubes). Then, the bacteria were grown for 2 h for E. coli and 2.5 h for S. aureus, to reach approximately 2 × 10^8 CFU/ml. The cultures were then diluted 1/100 in fresh medium to reach approximately 2 × 10^6 CFU/ml. […] Volumes of 100 μl-sample were extracted at 4 and 24 h. The aliquots were diluted and plated to determine cell viability. Non-treated cells were used as a control. All incubations took place at 37°C with shaking.
(§4) In order to maintain bacteria in their non-dividing state, we generated a medium to carry out the killing assays. From the supernatant of 500 ml of 48-h culture from each bacterium, the cells were pelleted at 4000 ×g for 30 min. The pH of each culture was adjusted to match the original pH of 7.2. To remove additional cell debris, flagella rest and outer membrane vesicles that could potentially interfere with the activity of AMPs ([Manning and Kuehn, 2011]), the supernatants were ultracentrifuged at 100000 ×g during 16 h at + 4°C. Thereafter, 250 ml of the supernatant from each flask was carefully recovered, without perturbing the pellet, and aseptically filtrated using 0.22 μm syringe filters and 40 ml were transferred to sterile 50 ml-falcon tubes, that were stored at −20°C until use. We refer to this medium as spent medium.
(§5) For stationary phase bacteria, five independent cultures per treatment were used. Bacteria from 48-h cultures containing approximately 3 × 10^9 CFU/ml for E. coli and 2 × 10^9 CFU/ml for S. aureus were diluted in spent medium (see preparation above) to a final cell density of 2×10^6 CFU/ml. Then, the bacteria were treated identically to the fast-growing bacteria killing experiment described above.
(§6) Statistical testing and plots were done in R version 3.3.2 ([R Core Team, 2017]), using Rstudio version 1.0.143 ([R Development Core Team, 2015]). To compare killing rates between bacteria growing in exponential and stationary phase for each antimicrobial after 4 and 24 h of exposure, a Welch’s t-test was used. Values below the detection limit (zero colony counts) were imputed for statistical purposes assigning a value of 1.

Escherichia coli K12 [4] = assay: as above; settings: for Killing fold-change 4 h (median) / Killing fold-change 24 h: E. coli K12, exponentially growing versus stationary phase cultures, 10x MIC, ~2 × 10^6 CFU/ml, 37°C, five independent cultures; for Killing of stationary phase bacteria at 24 h (in words) / Killing of stationary phase bacteria at 4 h (in words): stationary phase in spent medium
Procedure: as §3, §4, §5, §6

[5] = microdilution, inoculum ~1 × 10^6 CFU/ml mid-exponential phase, MHB devoid of cations, 24 h, 37°C, polypropylene non-binding plates

Compound: CNC(C)C1CCC(N)C(OC2C(N)CC(N)C(OC3OCC(C)(O)C(NC)C3O)C2O)O1 (centres unmarked) [Gentamicin]
- MIC [1, 5]: 4 µg/mL (≈ 8.38 µM)
- MIC (Escherichia coli K12 [2]; [5]): 1 µg/mL (≈ 2.09 µM)
- Killing fold-change 4 h (median) [3]: 8508.47
- Killing fold-change 24 h [3]: 2,890,000
- Killing of stationary phase bacteria at 24 h (in words) ([3]; S. aureus, 10 × MIC): reduced microbial count for both models with a significantly lower efficacy than killing fast-replicating cultures
- Killing fold-change 4 h (median) (Escherichia coli K12 [4]): 10380.62
- Killing fold-change 24 h (Escherichia coli K12 [4]): 317,000
- Killing of stationary phase bacteria at 24 h (in words) (Escherichia coli K12 [4]; E. coli, 10 × MIC): reduced microbial count for both models with a significantly lower efficacy than killing fast-replicating cultures

Compound: KWKLFKKIEKVGQNIRDGIIKAGPAVAVVGQATQIAK-NH2 (C-terminus assumed) [Cecropin A]
- Killing fold-change 4 h (median) [3]: 1.30
- Killing fold-change 24 h [3]: 0.22
- Killing of stationary phase bacteria at 4 h (in words) ([3]; S. aureus, 10 × MIC): some delay in killing
- Killing fold-change 4 h (median) (Escherichia coli K12 [4]): 1.21
- Killing fold-change 24 h (Escherichia coli K12 [4]): 27
- Killing of stationary phase bacteria at 4 h (in words) (Escherichia coli K12 [4]; E. coli, 10 × MIC): some delay in killing

Compound: CC[C@H](C)[C@H](N)C(=O)N[C@@H](CC(C)C)C(=O)N1CCC[C@H]1C(=O)N[C@@H](Cc1c[nH]c2ccccc12)C(=O)N[C@@H](CCCCN)C(=O)N[C@@H](Cc1c[nH]c2ccccc12)C(=O)N1CCC[C@H]1C(=O)N[C@@H](Cc1c[nH]c2ccccc12)C(=O)N[C@@H](Cc1c[nH]c2ccccc12)C(=O)N1CCC[C@H]1C(=O)N[C@@H](Cc1c[nH]c2ccccc12)C(=O)N[C@@H](CCCNC(=N)N)C(=O)N[C@@H](CCCNC(=N)N)C(N)=O [Indolicidin]
- MIC S. aureus SH1000 [1, 5]: 8 µg/mL (≈ 4.2 µM)
- MIC E. coli K12 (Escherichia coli K12 [2]; [5]): 16 µg/mL (≈ 8.39 µM)
- Killing fold-change 24 h [3]: 1
- Killing of bacterial cultures (in words) ([3]; S. aureus, 10 × MIC, fast and slow-replicating bacteria, both time-points 4 and 24 h): completely killing
- Killing fold-change 24 h (Escherichia coli K12 [4]): 1
- Killing of bacterial cultures (in words) (Escherichia coli K12 [4]; E. coli, 10 × MIC, fast and slow-replicating bacteria, both time-points 4 and 24 h): completely killing

Compound: GIGKFLKKAKKFGKAFVKILKK-NH2 (C-terminus assumed) [Pexiganan]
- MIC S. aureus SH1000 ([1]; SH1000, 24 h): 8 µg/mL
- MIC E. coli K12 (Escherichia coli K12 [2]; K12, 24 h): 4 µg/mL
- Killing fold-change 4 h (median) [3]: 1.14
- Killing fold-change 24 h [3]: 1
- Killing of stationary phase bacteria at 4 h (in words) ([3]; S. aureus, 10 × MIC): some delay in killing
- Killing fold-change 4 h (median) (Escherichia coli K12 [4]): 2.53
- Killing fold-change 24 h (Escherichia coli K12 [4]): 1
- Killing of stationary phase bacteria at 4 h (in words) (Escherichia coli K12 [4]; E. coli, 10 × MIC): some delay in killing

Compound: CC1(C)S[C@@H]2[C@H](NC(=O)[C@H](N)c3ccccc3)C(=O)N2[C@H]1C(=O)O [Ampicillin]
- MIC [1, 5]: 4 µg/mL (≈ 11.4 µM)
- MIC (Escherichia coli K12 [2]; [5]): 2 µg/mL (≈ 5.72 µM)
- Killing fold-change 4 h (median) [3]: 13087.25
- Killing fold-change 24 h [3]: 4,470,000
- Killing of stationary phase bacteria at 4 h (in words) ([3]; S. aureus, 10 × MIC): did not kill
- Killing of stationary phase bacteria at 24 h (in words) ([3]; S. aureus, 10 × MIC): poor killing capacity
- Killing fold-change 4 h (median) (Escherichia coli K12 [4]): 595.18
- Killing fold-change 24 h (Escherichia coli K12 [4]): 4,150,000
- Killing of stationary phase bacteria at 4 h (in words) (Escherichia coli K12 [4]; E. coli, 10 × MIC): did not kill
- Killing of stationary phase bacteria at 24 h (in words) (Escherichia coli K12 [4]; E. coli, 10 × MIC): poor killing capacity

Compound: O=C(O)c1cn(C2CC2)c2cc(N3CCNCC3)c(F)cc2c1=O [Ciprofloxacin]
- Killing of stationary phase bacteria at 24 h (in words) ([3]; S. aureus, 10 × MIC): reduced microbial count for both models with a significantly lower efficacy than killing fast-replicating cultures
- Killing of stationary phase bacteria at 24 h (in words) (Escherichia coli K12 [4]; E. coli, 10 × MIC): reduced microbial count for both models with a significantly lower efficacy than killing fast-replicating cultures

Compound: CC[C@H](C)[C@H](NC(=O)CN)C(=O)NCC(=O)N[C@@H](C)C(=O)N[C@H](C(=O)N[C@@H](CC(C)C)C(=O)N[C@@H](CCCCN)C(=O)N[C@H](C(=O)N[C@@H](CC(C)C)C(=O)N[C@H](C(=O)N[C@H](C(=O)NCC(=O)N[C@@H](CC(C)C)C(=O)N1CCC[C@H]1C(=O)N[C@@H](C)C(=O)N[C@@H](CC(C)C)C(=O)N[C@H](C(=O)N[C@@H](CO)C(=O)N[C@@H](Cc1c[nH]c2ccccc12)C(=O)N[C@H](C(=O)N[C@@H](CCCCN)C(=O)N[C@@H](CCCNC(=N)N)C(=O)N[C@@H](CCCCN)C(=O)N[C@@H](CCCNC(=N)N)C(=O)N[C@@H](CCC(N)=O)C(=O)N[C@@H](CCC(N)=O)C(N)=O)[C@@H](C)CC)[C@@H](C)CC)[C@@H](C)O)[C@@H](C)O)C(C)C)C(C)C [Melittin]
- MIC S. aureus SH1000 [1, 5]: 2 µg/mL (≈ 0.703 µM)
- MIC E. coli K12 (Escherichia coli K12 [2]; [5]): 2 µg/mL (≈ 0.703 µM)
- Killing fold-change 24 h [3]: 17
- Killing of stationary phase bacteria at 4 h (in words) ([3]; S. aureus, 10 × MIC): some delay in killing
- Killing of stationary phase bacteria at 4 h (in words) (Escherichia coli K12 [4]; E. coli, 10 × MIC): some delay in killing

Compound: CC[C@H](C)[C@H](NC(=O)[C@H](CCCCN)NC(=O)[C@H](CCC(=O)O)NC(=O)[C@H](CCCCN)NC(=O)[C@H](CO)NC(=O)[C@H](CCCCN)NC(=O)[C@H](CCCNC(=N)N)NC(=O)[C@H](Cc1ccccc1)NC(=O)[C@H](Cc1ccccc1)NC(=O)[C@H](CC(=O)O)NC(=O)CNC(=O)[C@H](CC(C)C)NC(=O)[C@@H](N)CC(C)C)C(=O)NCC(=O)N[C@@H](CCCCN)C(=O)N[C@@H](CCC(=O)O)C(=O)N[C@@H](Cc1ccccc1)C(=O)N[C@@H](CCCCN)C(=O)N[C@@H](CCCNC(=N)N)C(=O)N[C@H](C(=O)N[C@H](C(=O)N[C@@H](CCC(N)=O)C(=O)N[C@@H](CCCNC(=N)N)C(=O)N[C@H](C(=O)N[C@@H](CCCCN)C(=O)N[C@@H](CC(=O)O)C(=O)N[C@@H](Cc1ccccc1)C(=O)N[C@@H](CC(C)C)C(=O)N[C@@H](CCCNC(=N)N)C(=O)N[C@@H](CC(N)=O)C(=O)N[C@@H](CC(C)C)C(=O)N[C@H](C(=O)N1CCC[C@H]1C(=O)N[C@@H](CCCNC(=N)N)C(=O)N[C@H](C(=O)N[C@@H](CCC(=O)O)C(=O)N[C@@H](CO)C(=O)O)[C@@H](C)O)C(C)C)[C@@H](C)CC)C(C)C)[C@@H](C)CC [LL-37]
- MIC S. aureus SH1000 [1, 5]: 8 µg/mL (≈ 1.78 µM)
- MIC E. coli K12 (Escherichia coli K12 [2]; [5]): 4 µg/mL (≈ 0.89 µM)
- Killing fold-change 4 h (median) [3]: 0.66
- Killing fold-change 24 h [3]: 1
- Killing of stationary phase bacteria at 4 h (in words) ([3]; S. aureus, 10 × MIC): some delay in killing
- Killing fold-change 4 h (median) (Escherichia coli K12 [4]): 3.71
- Killing fold-change 24 h (Escherichia coli K12 [4]): 1
- Killing of stationary phase bacteria at 4 h (in words) (Escherichia coli K12 [4]; E. coli, 10 × MIC): some delay in killing
